Measurements reported in article PMC11904993, “Humanized Candida and NanoBiT Assays Expedite Discovery of Bdf1 Bromodomain Inhibitors With Antifungal Potential” (Advanced Science, 2025).
“And” between values parts separate entries of the source, which are not always exact repeats. Equal values may be shown once. Read-outs that look alike come from different tables or passages of the source.

Experiments:
[1] = system: C. glabrata strains expressing WT and mutant Bdf1; test: Growth inhibition in liquid media, C. glabrata lab strains; details: for OD at 600 nm: Figure S4B, Exp 1-3; for EC50: Nakaseomyces glabratus; for pEC50 growth inhibition: Fig 2C
Description: Growth on Liquid Media with C. glabrata Lab Strains: Cells were grown at 30 °C in SC+M+C‐U medium (SC medium with 5 mM methionine, 0.25 mM cysteine, without uracil) to an OD600 of 0.5–0.8. […] Plates were incubated at 30 °C and OD600 was measured using a Multiskan FC Microplate Photometer (Thermo Fisher).

CgBdf1 BD2 = CgBdf1 BD2 (Candida glabrata, UniProt Q6FWV7); test: biochemical; format: binding, C. glabrata; details: for IC50: read-out: pIC50 CgBD2 (converted)
CgBdf1 BD1 = CgBdf1 BD1 (Candida glabrata, UniProt Q6FWV7); test: HTRF assay, inhibition of H4ac4 peptide binding; parameters: species or system C. glabrata; details: for IC50 / pIC50 CgBD1: single experiments Exp1-3; for IC50: read-out: pIC50 CgBD1 (converted)
[2] = read-out: pEC50 (WT BDF1), Fig 2D (converted), WT C. glabrata, single experiments Exp1-3
[3] = read-out: pEC50 growth inhibition, Fig 2C (converted), strain BD1 Y-F, single experiments Exp1-3
[4] = Fig 2C original data, analogs of 24
[5] = strain BD2 Y-F, single experiments Exp1-3
[6] = read-out: pEC50 growth inhibition, Fig 2C (converted), strain BD2 Y-F, single experiments Exp1-3
[7] = Fig 2C original data, analogs of 24, single experiments Exp1-3

Sequence of CgBdf1 BD1 (Q6FWV7 entry or part of it): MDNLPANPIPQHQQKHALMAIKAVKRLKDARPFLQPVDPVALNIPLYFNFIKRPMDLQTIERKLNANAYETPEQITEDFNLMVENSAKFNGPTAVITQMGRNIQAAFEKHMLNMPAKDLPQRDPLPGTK
Sequence of CgBdf1 BD2 (Q6FWV7 entry or part of it): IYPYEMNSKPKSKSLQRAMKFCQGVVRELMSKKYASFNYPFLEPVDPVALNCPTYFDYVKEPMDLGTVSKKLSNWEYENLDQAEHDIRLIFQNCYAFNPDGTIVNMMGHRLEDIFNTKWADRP

Compound	EC50 [1, 2] [µM]	EC50 [1, 3] [µM]	EC50 [1, 6] [µM]	IC50 (CgBdf1 BD2; [7])	IC50 (CgBdf1 BD1; [4])	other results
CCOC(=O)Nc1cc(-c2ccc(C)c(NS(C)(=O)=O)c2)nn2c(C)nnc12 [Bromosporine, reference compound]						OD at 600 nm ([1]; WT BDF1 strain): 0.446 and 0.443 and 0.490; OD at 600 nm ([1]; bdf1-bd1Δ strain): 0.422 and 0.447 and 0.470; OD at 600 nm ([1]; bdf1-bd2Δ strain): 0.242 and 0.229 and 0.260; remaining activity at 0.07813 µM (CgBdf1 BD2; 24 h, CgBD2, Conc 78.13 nM, replicate experiments, read-out: HTRF signal relative to no-compound control (Figure S4A raw data)): 106%; remaining activity at 0.15625 µM (CgBdf1 BD2; 24 h, CgBD2, Conc 156.25 nM, replicate experiments, read-out: HTRF signal relative to no-compound control (Figure S4A raw data)): 113%; remaining activity at […] (CgBdf1 BD2; 24 h, CgBD2, Conc 2500 nM, replicate experiments, read-out: HTRF signal relative to no-compound control (Figure S4A raw data)): 79.8%; remaining activity at 5 µM (CgBdf1 BD2; 24 h, CgBD2, Conc 5000 nM, replicate experiments, read-out: HTRF signal relative to no-compound control (Figure S4A raw data)): 60.1%; remaining activity at 10 µM (CgBdf1 BD2; 24 h, CgBD2, Conc 10000 nM, replicate experiments, read-out: HTRF signal relative to no-compound control (Figure S4A raw data)): 30.8%; remaining activity at 20 µM (CgBdf1 BD2; 24 h, CgBD2, Conc 20000 nM, replicate experiments, read-out: HTRF signal relative to no-compound control (Figure S4A raw data)): 23.4%; IC50 (CgBdf1 BD2; Fig 1D/2A original data, single experiments Exp1-3): 4.9 µM and 4.17 µM; remaining activity at 0.07813 µM (CgBdf1 BD1; 4 h, CgBD1, Conc 78.13 nM, replicate experiments, read-out: HTRF signal relative to no-compound control (Figure S4A raw data)): 98%; remaining activity at 0.3125 µM (CgBdf1 BD1; 4 h, CgBD1, Conc 312.5 nM, replicate experiments, read-out: HTRF signal relative to no-compound control (Figure S4A raw data)): 97.9%; remaining activity at […] (CgBdf1 BD1; 4 h, CgBD1, Conc 2500 nM, replicate experiments, read-out: HTRF signal relative to no-compound control (Figure S4A raw data)): 94.3%; remaining activity at 5 µM (CgBdf1 BD1; 4 h, CgBD1, Conc 5000 nM, replicate experiments, read-out: HTRF signal relative to no-compound control (Figure S4A raw data)): 80.9%; remaining activity at 10 µM (CgBdf1 BD1; 4 h, CgBD1, Conc 10000 nM, replicate experiments, read-out: HTRF signal relative to no-compound control (Figure S4A raw data)): 75.9%; remaining activity at 20 µM (CgBdf1 BD1; 4 h, CgBD1, Conc 20000 nM, replicate experiments, read-out: HTRF signal relative to no-compound control (Figure S4A raw data)): 49.4%; IC50 (CgBdf1 BD1; Fig 1D/2A original data): 23.4 µM and 12.3 µM and 20 µM
Cc1ccc(-c2nnc(C)c(NCc3ccco3)n2)cc1 [Compound 24a]	206	> 251				pIC50 CgBD1 (CgBdf1 BD1; [4]): 5.099 and 5.219 and 5.157; fold drop in CgBD1 inhibition (CgBdf1 BD1; relative to 24, thiophenyl replaced by furyl or methylfuryl): 3 fold
Cc1cccc(-c2nnc(C)c(NCc3ccco3)n2)c1 [Compound 24b]	> 251	> 251	74.8	29.5 µM and 74.6 µM and > 100 µM	12.6 µM and 14.6 µM and 22.2 µM	pEC50 growth inhibition [1, 5]: 3.930 and 3.985
Cc1cccc(-c2nnc(C)c(NCc3ccc(C)o3)n2)c1 [Compound 24d]	101	134	44.7	16.4 µM and 18.7 µM and 21.5 µM	14.2 µM and 12.2 µM and 11.5 µM	pEC50 growth inhibition ([1]; strain BD1 Y-F, single experiments Exp1-3): 3.797 and 3.888; pEC50 growth inhibition [1, 5]: 4.459 and 4.324; pEC50 (WT BDF1) ([1]; Fig 2D, WT C. glabrata, single experiments Exp1-3): 3.713 and 3.843
COc1cccc(CNc2nc(-c3ccc(C)cc3)nnc2C)c1 [Compound 24f]	> 251	> 251	68.2	> 100 µM	3.66 µM and 2.81 µM and 2.3 µM	pEC50 growth inhibition [1, 5]: 4.188
COc1ccc(-c2nnc(C)c(NCc3ccccc3)n2)cc1 [Compound 24g]	> 251	> 251	43.2			pEC50 growth inhibition [1, 5]: 4.261 and 4.310; pIC50 CgBD2 (CgBdf1 BD2; [7]): 4.269 and <4; pIC50 CgBD1 (CgBdf1 BD1; [4]): 6.145 and 5.997
COc1ccc(CNc2nc(-c3ccc(C)cc3)nnc2C)cc1OC [Compound 24i]	> 251	> 251	> 251	44.1 µM and 45 µM and 41.5 µM	2.61 µM and 2.54 µM and 2.62 µM	
COc1ccc(CNc2nc(-c3cccc(C)c3)nnc2C)cc1OC [Compound 24j]	> 251	> 251	> 251	57 µM and 58.2 µM and 82.4 µM	4.11 µM and 5.81 µM and 4.81 µM	
COC(=O)c1ccc(CNc2nc(-c3ccc(C)cc3)nnc2C)cc1 [Compound 24k, Methyl 4‐(((6‐methyl‐3‐(p‐tolyl)‐1,2,4‐triazin‐5‐yl)amino)methyl)benzoate]	> 251	> 251	> 251	> 100 µM	> 100 µM	
COC(=O)c1cccc(CNc2nc(-c3ccc(C)cc3)nnc2C)c1 [Compound 24l, Methyl 3‐(((6‐methyl‐3‐(p‐tolyl)‐1,2,4‐triazin‐5‐yl)amino)methyl)benzoate]	> 251	> 251	> 251	> 100 µM	79.4 µM and 39.6 µM and 89.9 µM	
CCNC(=O)C[C@@H]1N=C(c2ccc(Cl)cc2)c2cc(OC)ccc2-n2c(C)nnc21 [I-BET]						OD at 600 nm ([1]; WT BDF1 strain): 0.369 and 0.413 and 0.420; OD at 600 nm ([1]; bdf1-bd1Δ strain): 0.298 and 0.365 and 0.364; OD at 600 nm ([1]; bdf1-bd2Δ strain): 0.164 and 0.171 and 0.191
COc1ccccc1S(=O)(=O)Nc1ccc2c(c1)CN(C)C(=O)N2 [PFI-1, reference compound]						pIC50 CgBD2 (CgBdf1 BD2): * 4; pIC50 CgBD1 (CgBdf1 BD1; Fig 1D/2A original data): 4.63 and 4.61
COc1ccccc1S(=O)(=O)Nc1ccc2c(c1)CN(C)C(=O)N2 [PFI]						OD at 600 nm ([1]; WT BDF1 strain): 0.381 and 0.415 and 0.390; OD at 600 nm ([1]; bdf1-bd1Δ strain): 0.323 and 0.367 and 0.349; OD at 600 nm ([1]; bdf1-bd2Δ strain): 0.181 and 0.163 and 0.165
I-BET151 [reference compound]						pIC50 CgBD2 (CgBdf1 BD2; Fig 1D/2A original data, single experiments Exp1-3, listed as IBET-151): 6.30 and 6.21 and 6.31; pIC50 CgBD2 (CgBdf1 BD2; Fig 1D/2A original data, single experiments Exp1-3, listed as i-BET151): 6.297 and 6.205; pIC50 CgBD1 (CgBdf1 BD1; Fig 1D/2A original data, listed as IBET-151): 5.54 and 5.64 and 5.77; pIC50 CgBD1 (CgBdf1 BD1; Fig 1D/2A original data, listed as i-BET151): 5.772 and 5.641
